Assay results reported in article PMC3635668 (Analytical chemistry, 2013).
Where two headings read alike, the source gives them in different places. Non-standard residues stand in square brackets, D forms with d. No end group written: not given here. Sta = CC(C)C[C@H](N)[C@@H](O)CC(=O)O

Experiments:
BACE1 [1] = conditions: read-out: IC50 (ELISA); measured from ELISA; cited from earlier work
BACE1 [2] = biological target: BACE1 (Homo sapiens, UniProt P56817); test: SPR antibody-amplified BACE1 cleavage inhibition assay, immobilized APP; type: biochemical; conditions: for BACE1 inhibition, two-channel screening (in words): 30 nM compound 1 (CH1) or 2 μM compound 2 (CH2), Figure 2B
Sequence of BACE1 (Homo sapiens, UniProt P56817) (P56817 46-501): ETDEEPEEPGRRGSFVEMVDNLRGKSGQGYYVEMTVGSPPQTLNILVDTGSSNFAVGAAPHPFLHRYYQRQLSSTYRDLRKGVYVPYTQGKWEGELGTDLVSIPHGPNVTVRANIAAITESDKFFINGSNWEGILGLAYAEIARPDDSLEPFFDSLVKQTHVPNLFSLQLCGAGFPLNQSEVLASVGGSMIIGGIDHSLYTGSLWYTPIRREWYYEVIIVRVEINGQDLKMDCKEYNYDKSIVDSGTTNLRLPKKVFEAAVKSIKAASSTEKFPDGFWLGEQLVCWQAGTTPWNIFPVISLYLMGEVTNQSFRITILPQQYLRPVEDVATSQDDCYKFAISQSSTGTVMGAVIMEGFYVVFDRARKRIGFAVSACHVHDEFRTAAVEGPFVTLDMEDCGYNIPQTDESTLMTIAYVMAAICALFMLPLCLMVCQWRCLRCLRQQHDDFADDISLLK

BACE1 [3] = conditions: read-out: IC50 (MS); determined by MS; cited from earlier work
[4] = 10 nM BACE1, SA-coated PEG chip

Substance	IC50 (BACE1 [1])	BACE1 inhibition, two-channel screening (in words) (BACE1 [2]; [4])	relative potency compound 1 vs compound 2 (in words) (BACE1 [2]; 30 nM compound 1 vs 2 μM compound 2, Figure 2B)	BACE1 inhibition (in words) (BACE1 [2]; 40 nM compound, 10 nM BACE1, SA-coated PEG chip, Figure 2A curve c)	IC50 (BACE1 [3])	BACE1 inhibition (in words) (BACE1 [2]; 2 μM compound 2, 10 nM BACE1, Ni-NTA chip, Figure 4 cycle 4)
KTEEISEVN-Sta-VAEF (KTEEISEVN[Sta]VAEF) [Compound 1]	0.03 µM	exhibited inhibition of the BACE1 activity	much more potent inhibitor	insufficient to completely halt the peptide cleavage by BACE1	–	–
Ph-LL-4,5-dehydro-L-CHO [Compound 2]	–	exhibited inhibition of the BACE1 activity	–	–	3 µM	partially inhibits BACE1
